Experimental data reported in article PMC7496286, “The Selectivity of Fosfosal for STAT5b over STAT5a is Mediated by Arg566 in the Linker Domain” (Chembiochem, 2020).
Numbering of substitutions follows the chain as printed.

Experiments:
STAT5b Arg566Trp = target: T1, STAT5b Arg566Trp (Homo sapiens, UniProt P51692, R566W); test: FP-based competitive binding assay, STAT5b Arg566Trp
T1 construct: His; made in house
T1 sequence (P51692 1-787 R566W): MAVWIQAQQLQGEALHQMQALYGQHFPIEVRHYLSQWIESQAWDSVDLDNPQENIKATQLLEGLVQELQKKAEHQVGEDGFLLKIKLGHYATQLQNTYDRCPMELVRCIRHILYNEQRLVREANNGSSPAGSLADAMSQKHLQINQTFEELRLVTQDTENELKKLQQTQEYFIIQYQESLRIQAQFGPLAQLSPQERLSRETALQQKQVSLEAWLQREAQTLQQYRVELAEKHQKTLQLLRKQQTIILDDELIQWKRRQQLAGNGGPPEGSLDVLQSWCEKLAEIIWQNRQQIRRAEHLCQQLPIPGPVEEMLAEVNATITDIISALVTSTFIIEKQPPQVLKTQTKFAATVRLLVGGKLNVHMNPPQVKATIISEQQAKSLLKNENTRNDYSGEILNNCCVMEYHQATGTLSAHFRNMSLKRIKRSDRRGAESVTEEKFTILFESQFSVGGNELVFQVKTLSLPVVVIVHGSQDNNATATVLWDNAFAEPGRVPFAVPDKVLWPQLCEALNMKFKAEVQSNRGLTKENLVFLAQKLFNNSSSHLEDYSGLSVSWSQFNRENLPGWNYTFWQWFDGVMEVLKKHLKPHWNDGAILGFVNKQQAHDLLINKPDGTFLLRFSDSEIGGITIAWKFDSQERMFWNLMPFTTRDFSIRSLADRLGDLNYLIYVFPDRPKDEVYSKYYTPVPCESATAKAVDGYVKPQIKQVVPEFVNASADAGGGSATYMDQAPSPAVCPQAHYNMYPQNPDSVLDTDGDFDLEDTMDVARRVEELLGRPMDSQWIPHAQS
Procedure: (§1) Fluorescence polarization assays
(§2) The ability of test compounds to displace 5-carboxyfluorescein-GY(PO3H2)LVLDKW (final concentration: 10 nM) from the SH2 domain of STAT5a/b proteins was analyzed. Proteins […]
(§3) was applied in dilution series comprising the following concentrations: 0.024 – 200 µM […]
(§4) and 0.146 – 600 µM (STAT5b Arg566Glu), respectively. The assays were performed in buffer containing 10 mM Tris, 50 mM NaCl, 1 mM DTT, 1 mM EDTA and 0.1% (v/v) NP-40. Fosfosal was dissolved in DMSO. STAT5a/b proteins and fosfosal were incubated at room temperature for 1 h before adding peptide. Samples were transferred to 384-well microtiter plates and fluorescence polarization was read after a further 1 h incubation time. All measurements were performed in triplicate (n=3), except for STAT5b (n=6) and STAT5a Trp566Arg (n=4). Percent binding was calculated based on a logarithmic curve fit using OriginPro 8G software. IC50 values were converted to Ki values using the published equation.[4] […]
(§5) [4] Z. Nikolovska-Coleska, R. Wang, X. Fang, H. Pan, Y. Tomita, P. Li, P. P. Roller, K.
(§6) Krajewski, N. G. Saito, J. A. Stuckey, S. Wang, Anal. Biochem. 2004, 332, 261-273.

[1] = target: T2, STAT5b-6M (Gln636Pro/Met639Asn/Phe640Leu/Met644Lys/Asn664Ser/Tyr679Phe) (Homo sapiens, UniProt P51692, F640L/M639N/M644K/N664S/Q636P/Y679F); test: FP-based competitive binding assay, STAT5b-6M
T2 construct: His; made in house
T2 sequence (P51692 1-787 Q636P/M639N/F640L/M644K/N664S/Y679F): T1 sequence (P51692 1-787 R566W) with W566R, Q636P, M639N, F640L, M644K, N664S, Y679F
Procedure: as §1, §2, §3, §4, §5, §6

Row | inhibition at 600 µM (STAT5b Arg566Trp; STAT5b Arg566Trp, 600 μM, the highest concentration tested) [%] | IC50 ([1]; STAT5b-6M) [µM] | Ki ([1]; STAT5b-6M, Ki calculated from IC50) [µM] | increase of activity against STAT5b-6M compared to wild type STAT5b ([1]; ratio of Ki values) [fold] | SMILES | Kd (STAT5b Arg566Trp) [µM] | Kd [1] [µM]
1 | – | – | – | – | CC(C)C[C@H](NC(=O)[C@H](Cc1ccc(OP(=O)(O)O)cc1)NC(=O)CNC(=O)c1ccc2c(c1)C(=O)OC21c2ccc(O)cc2Oc2cc(O)ccc21)C(=O)N[C@H](C(=O)N[C@@H](CC(C)C)C(=O)N[C@@H](CC(=O)O)C(=O)N[C@@H](CCCCN)C(=O)N[C@@H](Cc1c[nH]c2ccccc12)C(=O)O)C(C)C [5-carboxyfluorescein-GY(PO3H2)LVLDKW] | 0.289 | 0.085
2 | 24 ± 2 | 21.3 ± 1.2 | 10.7 ± 0.6 | ~3 | O=C(O)c1ccccc1OP(=O)(O)O [fosfosal, O‐phosphorylated salicylic acid] | – | –
